{
  "source": "paper PMC4440444",
  "about": "(Theranostics, 2015)",
  "tested_on": "glioma",
  "format": "in vivo, human",
  "conditions": "for T/NTmax (maximum target to non-target ratio): brain PET/CT; for SUVmax in glioma: brain PET/CT before surgery",
  "note": "Read-outs that look alike come from different tables or passages of the source.",
  "data": [
    {"substance": "^18F-FDG", "values": [
      {"measurement": "T/NTmax in glioma, mean ± SD", "setting": "eight glioma patients", "result": "0.86 ± 0.41"},
      {"measurement": "SUVmax in glioma tissues, range", "setting": "eight glioma patients, range", "result": "3.50-12.27"},
      {"measurement": "T/NTmax in glioma, range", "setting": "eight glioma patients, range", "result": "0.35-1.59"},
      {"measurement": "T/NTmax (maximum target to non-target ratio)", "setting": "patient No. 1, WHO grade II", "result": 0.72},
      {"measurement": "SUVmax in glioma", "setting": "patient No. 1, WHO grade II", "result": 7.40},
      {"measurement": "T/NTmax (maximum target to non-target ratio)", "setting": "patient No. 2, WHO grade II", "result": 0.35},
      {"measurement": "SUVmax in glioma", "setting": "patient No. 2, WHO grade II", "result": 3.50},
      {"measurement": "T/NTmax (maximum target to non-target ratio)", "setting": "patient No. 3, WHO grade III", "result": 0.61},
      {"measurement": "SUVmax in glioma", "setting": "patient No. 3, WHO grade III", "result": 7.27},
      {"measurement": "T/NTmax (maximum target to non-target ratio)", "setting": "patient No. 4, WHO grade IV", "result": 0.80},
      {"measurement": "SUVmax in glioma", "setting": "patient No. 4, WHO grade IV", "result": 12.27},
      {"measurement": "T/NTmax (maximum target to non-target ratio)", "setting": "patient No. 5, WHO grade IV", "result": 0.72},
      {"measurement": "SUVmax in glioma", "setting": "patient No. 5, WHO grade IV", "result": 5.76},
      {"measurement": "T/NTmax (maximum target to non-target ratio)", "setting": "patient No. 6, WHO grade IV", "result": 0.78},
      {"measurement": "SUVmax in glioma", "setting": "patient No. 6, WHO grade IV", "result": 9.87},
      {"measurement": "SUVmax in glioma", "setting": "patient No. 7, WHO grade IV", "result": 8.47},
      {"measurement": "T/NTmax (maximum target to non-target ratio)", "setting": "patient No. 8, WHO grade IV", "result": 1.59},
      {"measurement": "SUVmax in glioma", "setting": "patient No. 8, WHO grade IV", "result": 4.20}
    ]}
  ]
}
